“And” between values parts separate entries of the source, which are not always exact repeats. Identical values can stand only once. Toxic doses and inconclusive results are not listed.

The subject of this experiment is BDF1 mice, B16 melanoma ip, median survival T/C. Description: NCI In Vivo Anticancer Drug Screen. Data for tumor model B16 Melanoma (intraperitoneal) in B6D2F1 (BDF1) mice. The conditions noted are these: endpoint: median survival time, higher = longer survival. The gist of the method:
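The ratio T/C compares compound-treated mice with vehicle-treated controls, using survival or tumor size as the endpoint in a transplantable tumor model.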

Where [1] appears, read: dose: 12.5 mg/kg/injection, schedule: Q01DX009 (ip), vehicle: Klucel (hydroxypropylcellulose) (HPC).
[2] abbreviates: dose: 25.0 mg/kg/injection, schedule: Q01DX009 (ip), vehicle: Klucel (hydroxypropylcellulose) (HPC).
[3] abbreviates: dose: 50.0 mg/kg/injection, schedule: Q01DX009 (ip), vehicle: Klucel (hydroxypropylcellulose) (HPC).
The mark [4] stands for this setting: dose: 100.0 mg/kg/injection, schedule: Q01DX009 (ip), vehicle: Klucel (hydroxypropylcellulose) (HPC).
[5] abbreviates: dose: 200.0 mg/kg/injection, schedule: Q01DX009 (ip), vehicle: Klucel (hydroxypropylcellulose) (HPC).
Setting [6] is: dose: 12.5 mg/kg/injection, schedule: Q01DX009 (ip), vehicle: saline with Tween-80.
[7] abbreviates: dose: 6.25 mg/kg/injection, schedule: Q01DX009 (ip), vehicle: Klucel (hydroxypropylcellulose) (HPC).
Setting [8] is: dose: 12.5 mg/kg/injection, schedule: Q01DX009 (ip), vehicle: saline.
[9] abbreviates: dose: 50.0 mg/kg/injection, schedule: Q01DX009 (ip), vehicle: saline.
Setting [10] is: dose: 100.0 mg/kg/injection, schedule: Q01DX009 (ip), vehicle: saline.
Where [11] appears, read: dose: 200.0 mg/kg/injection, schedule: Q01DX009 (ip), vehicle: saline.
Setting [12] is: dose: 100.0 mg/kg/injection, schedule: Q01DX009 (ip), vehicle: saline with Tween-80.
Setting [13] is: dose: 25.0 mg/kg/injection, schedule: Q01DX009 (ip), vehicle: saline with Tween-80.
Setting [14] is: dose: 25.0 mg/kg/injection, schedule: Q01DX009 (ip), vehicle: saline.
The mark [15] stands for this setting: dose: 50.0 mg/kg/injection, schedule: Q01DX009 (ip), vehicle: saline with Tween-80.

Regarding `Cc1ccccc1-n1c(C)nc2ccccc2c1=O`, the T/C runs as follows: under setting [1], 92 % of control and 108 % of control; under setting [2], 92 % of control; under setting [3], 88 % of control and 90 % of control; under setting [4], 88 % of control; under setting [5], 90 % of control.

For `Cc1cc(N(CC(C)Br)CC(C)Br)ccc1N=Nc1ccccc1C(=O)O` (stereo not drawn), under setting [6], the T/C is 165 % of control and 185 % of control.

For `CC(NC(=O)c1ccccc1)C(=O)NC(CSC(c1ccccc1)c1ccccc1)C(=O)O` (stereo not drawn), the T/C is, setting by setting: (dose: 12.5 mg/kg/injection, schedule: Q04DX003 (ip), vehicle: saline) 107 % of control; (dose: 25.0 mg/kg/injection, schedule: Q04DX003 (ip), vehicle: saline) 110 % of control; (dose: 50.0 mg/kg/injection, schedule: Q04DX003 (ip), vehicle: saline) 89 % of control.

`CN(N)P(=S)(c1ccccc1)N(C)N`: the T/C runs as follows: under setting [7], 106 % of control; under setting [1], 103 % of control.

In the case of `Nc1nc([Se])c2ncn(C3CC(O)C(CO)O3)c2n1` (stereo not drawn), the T/C is, setting by setting: under setting [7], 105 % of control; under setting [1], 124 % of control; under setting [2], 122 % of control; under setting [3], 111 % of control.

Take `O=C(O)CCNCc1ccccc1`: the T/C reads like this: under setting [8], 111 % of control; under setting [9], 102 % of control; under setting [10], 106 % of control; under setting [11], 111 % of control.

On to `CN(C)CCCNc1c2ccccc2nc2cccc([N+](=O)[O-])c12`, for which the T/C was 112 % of control (dose: 2.0 micrograms/kg/injection, schedule: Q01DX009 (ip), vehicle: saline); 116 % of control (dose: 4.0 micrograms/kg/injection, schedule: Q01DX009 (ip), vehicle: saline); 107 % of control (dose: 8.0 micrograms/kg/injection, schedule: Q01DX009 (ip), vehicle: saline); 109 % of control (dose: 16.0 micrograms/kg/injection, schedule: Q01DX009 (ip), vehicle: saline); 121 % of control (dose: 32.0 micrograms/kg/injection, schedule: Q01DX009 (ip), vehicle: saline); 103 % of control (dose: 63.0 micrograms/kg/injection, schedule: Q01DX009 (ip), vehicle: saline). The T/C (dose: 125.0 micrograms/kg/injection, schedule: Q01DX009 (ip), vehicle: saline) is 90 % of control.

In the case of `CC1(C)SC(C(NC(=O)Cc2ccccc2)C(=O)O)NC1C(=O)O` (stereo not drawn), the T/C is 105 % of control under setting [12] and 102 % of control (dose: 200.0 mg/kg/injection, schedule: Q01DX009 (ip), vehicle: saline with Tween-80).

In the case of `CCOC(=O)/C=C(\CBr)OC`, the T/C under setting [1] was 105 % of control and the T/C under setting [2] is 93 % of control.

For `c1ccc2c(c1)[As]=c1ccccc1=[As]2` (stereo not drawn), the T/C (dose: 0.75 mg/kg/injection, schedule: Q01DX009 (ip), vehicle: saline with Tween-80) was 104 % of control; the T/C (dose: 1.5 mg/kg/injection, schedule: Q01DX009 (ip), vehicle: saline with Tween-80) is 106 % of control; the T/C (dose: 3.0 mg/kg/injection, schedule: Q01DX009 (ip), vehicle: saline with Tween-80) was 100 % of control; the T/C (dose: 6.0 mg/kg/injection, schedule: Q01DX009 (ip), vehicle: saline with Tween-80) was 110 % of control.

On to `O=C1c2ccccc2C(=O)c2c3c(cc(NCCNCCO)c21)N(CCO)CCN3`, for which the T/C is 121 % of control (dose: 12.5 mg/kg/injection, schedule: Q01DX009 (ip), vehicle: DMSO); 162 % of control (dose: 100.0 mg/kg/injection, schedule: Q01DX009 (ip), vehicle: DMSO); 194 % of control (dose: 200.0 mg/kg/injection, schedule: Q01DX009 (ip), vehicle: DMSO).

For `Cn1cnc2c1c(=O)[nH]c(=O)n2C`, the T/C is 109 % of control under setting [4]; 111 % of control under setting [5]; 109 % of control (dose: 400.0 mg/kg/injection, schedule: Q01DX009 (ip), vehicle: Klucel (hydroxypropylcellulose) (HPC)).

`COc1ccc2nc3cc(Cl)ccc3c(NCCNCCNCCNc3c4ccc(Cl)cc4nc4ccc(OC)cc34)c2c1`: the T/C is 103 % of control (dose: 3.12 mg/kg/injection, schedule: Q01DX009 (ip), vehicle: Klucel (hydroxypropylcellulose) (HPC)); 107 % of control under setting [7]; 113 % of control under setting [1]; 164 % of control under setting [6]; 155 % of control under setting [8]; 113 % of control under setting [2]. Also, the T/C by setting is: under setting [13], 160 % of control; under setting [14], 150 % of control; under setting [3], 113 % of control; under setting [15], 119 % of control; under setting [12], 90 % of control.

With `O=C(O)C1C(C(=O)O)C2(Cl)C(Cl)=C(Cl)C1(Cl)C2(Cl)Cl.[Fe]` (stereo not drawn), the T/C is, setting by setting: under setting [13], 93 % of control; under setting [15], 95 % of control; under setting [12], 93 % of control.

With `COc1ccc(CC(C(=O)O)C(Cc2ccc(OC)c(OC)c2)C(=O)O)cc1OC` (stereo not drawn), the T/C under setting [4] is 94 % of control and the T/C under setting [5] was 89 % of control.

For `O=C(CCl)N1c2ccccc2Oc2cc3ccccc3cc21`, the T/C is, setting by setting: under setting [9], 113 % of control; under setting [10], 106 % of control; under setting [11], 104 % of control; (dose: 400.0 mg/kg/injection, schedule: Q01DX009 (ip), vehicle: saline) 109 % of control.

In the case of `CCOC(=O)N1c2ccccc2C=CC1OCC` (stereo not drawn), the T/C is 105 % of control (dose: 6.25 mg/kg/injection, schedule: Q04DX003 (ip), vehicle: Klucel (hydroxypropylcellulose) (HPC)); 105 % of control (dose: 12.5 mg/kg/injection, schedule: Q04DX003 (ip), vehicle: Klucel (hydroxypropylcellulose) (HPC)); 89 % of control and 105 % of control (dose: 25.0 mg/kg/injection, schedule: Q04DX003 (ip), vehicle: Klucel (hydroxypropylcellulose) (HPC)).

On to `[Cl][Pt+2][Cl].[NH-]c1cc(Cl)c(Cl)c(Cl)c1[NH-]`, for which the T/C (dose: 1.25 mg/kg/injection, schedule: Q01DX009 (ip), vehicle: saline with Tween-80) was 98 % of control; the T/C (dose: 2.5 mg/kg/injection, schedule: Q01DX009 (ip), vehicle: saline with Tween-80) was 104 % of control; the T/C (dose: 5.0 mg/kg/injection, schedule: Q01DX009 (ip), vehicle: saline with Tween-80) is 103 % of control; the T/C (dose: 10.0 mg/kg/injection, schedule: Q01DX009 (ip), vehicle: saline with Tween-80) is 110 % of control; the T/C (dose: 20.0 mg/kg/injection, schedule: Q01DX009 (ip), vehicle: saline with Tween-80) is 113 % of control; the T/C (dose: 40.0 mg/kg/injection, schedule: Q01DX009 (ip), vehicle: saline with Tween-80) is 117 % of control.

For the compound `CCOC(=O)c1ccc(N)cc1`, the T/C was 121 % of control (dose: 37.5 mg/kg/injection, schedule: Q01DX009 (ip), vehicle: saline with Tween-80); 102 % of control (dose: 37.5 mg/kg/injection, schedule: Q04DX003 (ip), vehicle: saline with Tween-80); 112 % of control (dose: 75.0 mg/kg/injection, schedule: Q01DX009 (ip), vehicle: saline with Tween-80); 91 % of control (dose: 75.0 mg/kg/injection, schedule: Q04DX003 (ip), vehicle: saline with Tween-80); 107 % of control (dose: 150.0 mg/kg/injection, schedule: Q01DX009 (ip), vehicle: saline with Tween-80); 93 % of control (dose: 150.0 mg/kg/injection, schedule: Q04DX003 (ip), vehicle: saline with Tween-80).

Take `C=C(C)C12OC3(c4ccccc4)OC1C1C4OC4(CO)C(O)C4(O)C(=O)C(C)=CC4C1(O3)C(C)C2OC(=O)c1ccccc1` (stereo not drawn): the T/C reads like this: (dose: 0.1 mg/kg/injection, schedule: Q01DX009 (ip), vehicle: saline with Tween-80) 99 % of control; (dose: 0.2 mg/kg/injection, schedule: Q01DX009 (ip), vehicle: saline with Tween-80) 101 % of control; (dose: 0.4 mg/kg/injection, schedule: Q01DX009 (ip), vehicle: saline with Tween-80) 98 % of control.

In the case of `NC1(c2ccccc2)CCCCC1`, the T/C (dose: 3.12 mg/kg/injection, schedule: Q01DX009 (ip), vehicle: saline) is 86 % of control; the T/C (dose: 6.25 mg/kg/injection, schedule: Q01DX009 (ip), vehicle: saline) is 100 % of control; the T/C under setting [8] was 102 % of control; the T/C under setting [14] was 100 % of control; the T/C under setting [9] is 100 % of control.

For the origin of these results see PubChem BioAssay AID192 (DTP/NCI, 2004).
